Molecular target: T1, AP1G1 (Homo sapiens, UniProt O43747)
T1 construct: endogenous full-length AP1G1 in BEAS-2B cells or lysate; untagged
T1 sequence (O43747 1-822): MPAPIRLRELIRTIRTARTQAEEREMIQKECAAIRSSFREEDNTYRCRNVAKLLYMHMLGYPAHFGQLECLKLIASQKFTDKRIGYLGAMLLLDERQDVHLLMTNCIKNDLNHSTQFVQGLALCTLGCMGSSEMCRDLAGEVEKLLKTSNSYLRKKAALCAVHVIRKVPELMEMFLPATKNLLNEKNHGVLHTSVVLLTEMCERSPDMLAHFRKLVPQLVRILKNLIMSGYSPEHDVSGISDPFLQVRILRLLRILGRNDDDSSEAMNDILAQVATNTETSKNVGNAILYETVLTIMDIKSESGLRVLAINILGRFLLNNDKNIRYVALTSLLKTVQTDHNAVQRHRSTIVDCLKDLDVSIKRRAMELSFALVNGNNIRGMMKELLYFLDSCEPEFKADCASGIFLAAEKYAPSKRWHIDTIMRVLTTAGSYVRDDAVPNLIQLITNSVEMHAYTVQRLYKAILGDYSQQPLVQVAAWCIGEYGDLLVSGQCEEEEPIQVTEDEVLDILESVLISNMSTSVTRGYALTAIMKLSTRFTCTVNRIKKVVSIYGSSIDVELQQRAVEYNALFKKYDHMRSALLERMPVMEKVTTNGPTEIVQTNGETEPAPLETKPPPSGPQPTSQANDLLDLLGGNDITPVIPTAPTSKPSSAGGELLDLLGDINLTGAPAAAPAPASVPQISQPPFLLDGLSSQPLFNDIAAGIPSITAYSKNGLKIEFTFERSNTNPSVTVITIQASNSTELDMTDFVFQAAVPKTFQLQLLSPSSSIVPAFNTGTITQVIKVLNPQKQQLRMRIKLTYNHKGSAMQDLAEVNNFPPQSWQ
Experiment: CETSA-Western blot
Assay type: cell-based
Conditions: 40-65 ℃; covalent; Cys128; also competes with ITAP in BEAS-2B lysate

C=C(CC(=O)O)C(=O)O [itaconate]
CETSA-Western blot: Itaconate treatment significantly altered the thermal stability of AP1G1
